In ChEMBL document CHEMBL1145659, “The alkaloids of Corydalis meifolia” (J Nat Prod, 1983):
Values after ≈ are worked out from the molar mass of the structure shown.

Assays:
Ileum [1] = assay: (§1) Spasmolytic activity in isolated guinea pig ileum assessed as spasmogen-induced inhibition of smooth muscle contraction at 10 ug; type: functional, Cavia porcellus; set-up: scale not given: the % may be the effect or the level left
Ileum [2] = assay: as §1; type: functional, Cavia porcellus; set-up: scale not given: the % may be the effect or the level left; remark: listed apart in the source
Ileum [3] = assay: Spasmolytic activity in isolated guinea pig ileum assessed as spasmogen-induced inhibition of smooth muscle contraction; type: functional, tissue-based; details: Cavia porcellus

Row | SMILES | Activity (Ileum [1]) [%] | Activity (Ileum [2]) [%] | Activity (Ileum [3]) | IC50 (Ileum [3]) [µg/mL]
1 | COc1cc2c(cc1OC)[C@H]1[C@@H](C)c3ccc4c(c3CN1CC2)OCO4 [CAVIDINE] | 84 | 100 | Dose-dependent effect | –
2 | COc1cc2c(cc1OC)[C@@H]([C@H]1OC(=O)c3c1ccc1c3OCO1)N(C)CC2 [CORLUMINE] | 0 | 50 | Dose-dependent effect | –
3 | COc1cc2c(cc1OC)-c1c(C)c3ccc4c(c3c[n+]1CC2)OCO4.[Cl-] [DEHYDROCAVIDINE] | 20 | 40 | Dose-dependent effect | –
4 | COc1cc2c(cc1OC)C1(C(=O)c3ccc4c(c3[C@H]1O)OCO4)N(C)CC2 (stereo partly drawn) [YENHUSOMIDINE] | 17 | 52 | Dose-dependent effect | 0.5 (≈ 1.3 µM)
